The values below are quoted from earlier work in patent US20050004010A1, “Cobalamin conjugates useful as imaging agents and as antitumor agents” (Mayo Foundation For Medical Education, priority 1999, published 2005).

The conditions of this series: L isomer versus D isomer.

Regarding `COc1cccc2c1C(=O)c1c(O)c3c(c(O)c1C2=O)C[C@@](O)(C(C)=O)C[C@@H]3O[C@H]1C[C@H](NC(=O)[C@@H](N)CC(C)C)C(O)[C@H](C)O1` (stereo partly drawn) [N-(L-leucyl) daunorubicin], the “hydrolysis in vivo to regenerate daunorubicin” value is listed as “hydrolyzed in vivo to regenerate daunorubicin”.
